Measured values from ChEMBL document CHEMBL1201861, “Genomics of Drug Sensitity in Cancer screening data, Wellcome Trust Sanger Institute”.

How the values were obtained:
Assay in all cases: cells
AN3-CA = format: functional, cell-based; settings: Homo sapiens;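 note: growth inhibition of human AN3-CA cells measured by a cell viability assay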
Description: SANGER: Inhibition of human AN3-CA cell growth in a cell viability assay.

LoVo = format: functional, cell-based; settings: Homo sapiens;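 note: growth inhibition of human LoVo cells, read out with a cell viability assay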
Description: SANGER: Inhibition of human LoVo cell growth in a cell viability assay.

SJSA-1 = format: functional, cell-based, Homo sapiens; settings: Homo sapiens, SJSA-1;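 note: growth inhibition of human SJSA-1 cells, read out through a cell viability measurement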
Description: SANGER: Inhibition of human SJSA-1 cell growth in a cell viability assay.

BB49-HNC = format: functional, cell-based, Homo sapiens; settings: Homo sapiens, BB49-HNC;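 note: cell viability assay read-out, reported as inhibition of BB49-HNC cell growth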
Description: SANGER: Inhibition of human BB49-HNC cell growth in a cell viability assay.

MN-60 = format: functional, cell-based; settings: Homo sapiens;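 note: growth inhibition of the MN-60 cell line, determined with a cell viability assay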
Description: SANGER: Inhibition of human MN-60 cell growth in a cell viability assay.

SW-620 = format: functional, cell-based, Homo sapiens; settings: Homo sapiens, SW-620;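 note: growth inhibition of human SW-620 cells, measured by a cell viability assay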
Description: SANGER: Inhibition of human SW620 cell growth in a cell viability assay.

SCH = format: functional, cell-based, Homo sapiens; settings: Homo sapiens, SCH;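 note: growth inhibition of human SCH cells, read out in a cell viability assay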
Description: SANGER: Inhibition of human SCH cell growth in a cell viability assay.

GB-1 = format: functional, cell-based, Homo sapiens; settings: Homo sapiens, GB-1;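 note: growth of GB-1 cells judged by a viability assay, IC50 marks the concentration inhibiting growth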
Description: SANGER: Inhibition of human GB-1 cell growth in a cell viability assay.

NB10 = format: functional, cell-based, Homo sapiens; settings: Homo sapiens, NB10;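 note: growth inhibition of NB10 cells, read out by a cell viability assay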
Description: SANGER: Inhibition of human NB10 cell growth in a cell viability assay.

A2780 = format: functional, cell-based, Homo sapiens; settings: Homo sapiens, A2780;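 note: growth inhibition of A2780 cells, read out with a cell viability assay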
Description: SANGER: Inhibition of human A2780 cell growth in a cell viability assay.

SCC-25 = format: functional, cell-based, Homo sapiens; settings: Homo sapiens, SCC-25;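 note: growth inhibition of SCC-25 cells, measured with a cell viability assay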
Description: SANGER: Inhibition of human SCC-25 cell growth in a cell viability assay.

OVCAR-3 = format: functional, cell-based, Homo sapiens; settings: Homo sapiens, OVCAR-3;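 note: growth inhibition of human OVCAR-3 cells, determined by a cell viability assay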
Description: SANGER: Inhibition of human OVCAR-3 cell growth in a cell viability assay.

MS-1 = format: functional, cell-based; settings: Homo sapiens;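 note: growth inhibition of MS-1 cells, read out by cell viability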
Description: SANGER: Inhibition of human MS-1 cell growth in a cell viability assay.

OCI-AML2 = format: functional, cell-based; settings: Homo sapiens;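 note: growth inhibition of OCI-AML2 cells, read out with a cell viability assay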
Description: SANGER: Inhibition of human OCI-AML2 cell growth in a cell viability assay.

NCI-H1650 = format: functional, cell-based, Homo sapiens; settings: Homo sapiens, NCI-H1650;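 note: growth inhibition of human NCI-H1650 cells measured by a cell viability assay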
Description: SANGER: Inhibition of human NCI-H1650 cell growth in a cell viability assay.

HMV-2 cell line = format: functional, cell-based, Homo sapiens; settings: Homo sapiens, HMV-2;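 note: growth inhibition of HMV-II cells, read out with a cell viability assay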
Description: SANGER: Inhibition of human HMV-II cell growth in a cell viability assay.

RT-112 = format: functional, cell-based, Homo sapiens; settings: Homo sapiens, RT-112
Description: SANGER: Inhibition of human RT-112 cell growth in a cell viability assay.

Capan-2 = format: functional, cell-based, Homo sapiens; settings: Homo sapiens, Capan-2;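 note: Capan-2 cell growth inhibition, read out with a viability assay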
Description: SANGER: Inhibition of human Capan-2 cell growth in a cell viability assay.

CHL-1 = format: functional, cell-based, Homo sapiens; settings: Homo sapiens, CHL-1;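 note: cell growth inhibition, read out with a cell viability assay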
Description: SANGER: Inhibition of human CHL-1 cell growth in a cell viability assay.

TE-10 = format: functional, cell-based, Homo sapiens; settings: Homo sapiens, TE-10;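 note: growth inhibition of TE-10 cells, measured by a cell viability assay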
Description: SANGER: Inhibition of human TE-10 cell growth in a cell viability assay.

TYK-nu = format: functional, cell-based, Homo sapiens; settings: Homo sapiens, TYK-nu;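 note: growth inhibition of human TYK-nu cells, read out by a cell viability assay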
Description: SANGER: Inhibition of human TYK-nu cell growth in a cell viability assay.

HuP-T4 = format: functional, cell-based, Homo sapiens; settings: Homo sapiens, HuP-T4;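 note: cell viability assay measuring how much HuP-T4 cell growth is inhibited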
Description: SANGER: Inhibition of human HuP-T4 cell growth in a cell viability assay.

MEG-01 = format: functional, cell-based; settings: Homo sapiens;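 note: growth inhibition of MEG-01 cells, read out by a cell viability assay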
Description: SANGER: Inhibition of human MEG-01 cell growth in a cell viability assay.

KYSE-520 cell line = format: functional, cell-based, Homo sapiens; settings: Homo sapiens, KYSE-520;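 note: growth inhibition of human KYSE-520 cells, read out with a viability assay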
Description: SANGER: Inhibition of human KYSE-520 cell growth in a cell viability assay.

LOX IMVI = format: functional, cell-based; settings: Homo sapiens
Description: SANGER: Inhibition of human LOXIMVI cell growth in a cell viability assay.

SK-LU-1 = format: functional, cell-based, Homo sapiens; settings: Homo sapiens, SK-LU-1;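 note: cell viability assay measuring growth inhibition of human SK-LU-1 cells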
Description: SANGER: Inhibition of human SK-LU-1 cell growth in a cell viability assay.

KYSE-510 = format: functional, cell-based, Homo sapiens; settings: Homo sapiens, KYSE-510;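 note: cell viability readout used to measure how strongly growth of the cell line is suppressed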
Description: SANGER: Inhibition of human KYSE-510 cell growth in a cell viability assay.

SNU-5 = format: functional, cell-based; settings: Homo sapiens;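 note: cell viability readout used to measure growth inhibition in human NCI-SNU-5 cells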
Description: SANGER: Inhibition of human NCI-SNU-5 cell growth in a cell viability assay.

JVM-3 = format: functional, cell-based; settings: Homo sapiens;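 note: growth inhibition of human JVM-3 cells, read out with a cell viability assay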
Description: SANGER: Inhibition of human JVM-3 cell growth in a cell viability assay.

SF-126 = format: functional, cell-based, Homo sapiens; settings: Homo sapiens, SF-126;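 note: growth inhibition of human SF126 cells, read out with a cell viability assay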
Description: SANGER: Inhibition of human SF126 cell growth in a cell viability assay.

YAPC = format: functional, cell-based, Homo sapiens; settings: Homo sapiens, YAPC;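 note: growth inhibition of YAPC cells, measured with a cell viability assay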
Description: SANGER: Inhibition of human YAPC cell growth in a cell viability assay.

NCI-H810 = format: functional, cell-based, Homo sapiens; settings: Homo sapiens, NCI-H810;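 note: IC50 reflects inhibition of cancer cell line growth, read out with a cell viability assay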
Description: SANGER: Inhibition of human NCI-H810 cell growth in a cell viability assay.

KYSE-70 cell line = format: functional, cell-based, Homo sapiens; settings: Homo sapiens, KYSE-70;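 note: cell viability assay read-out, with IC50 expressing suppression of KYSE-70 cell growth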
Description: SANGER: Inhibition of human KYSE-70 cell growth in a cell viability assay.

TGW = format: functional, cell-based; settings: Homo sapiens;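 note: growth inhibition of human TGW cells, read out with a cell viability assay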
Description: SANGER: Inhibition of human TGW cell growth in a cell viability assay.

NCI-H1355 = format: functional, cell-based, Homo sapiens; settings: Homo sapiens, NCI-H1355;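 note: growth inhibition of human NCI-H1355 cells, read out by a cell viability assay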
Description: SANGER: Inhibition of human NCI-H1355 cell growth in a cell viability assay.

ES7 = format: functional, cell-based, Homo sapiens; settings: Homo sapiens, ES7;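 note: growth inhibition of cultured human ES7 cells, read out as cell viability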
Description: SANGER: Inhibition of human ES7 cell growth in a cell viability assay.

TGBC24TKB = format: functional, cell-based, Homo sapiens; settings: Homo sapiens, TGBC24TKB;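 note: growth inhibition of human TGBC24TKB cells, read out with a cell viability assay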
Description: SANGER: Inhibition of human TGBC24TKB cell growth in a cell viability assay.

FTC-133 = format: functional, cell-based, Homo sapiens; settings: Homo sapiens, FTC-133
SK-MEL-24 = format: functional, cell-based; settings: Homo sapiens;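 note: growth inhibition read out by a cell viability assay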
Description: SANGER: Inhibition of human SK-MEL-24 cell growth in a cell viability assay.

8505C = format: functional, cell-based, Homo sapiens; settings: Homo sapiens, 8505C
Description: SANGER: Inhibition of human 8505C cell growth in a cell viability assay.

L-363 = format: functional, cell-based; settings: Homo sapiens
Description: SANGER: Inhibition of human L-363 cell growth in a cell viability assay.

LC-2-ad = format: functional, cell-based, Homo sapiens; settings: Homo sapiens, LC-2-ad;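 note: growth inhibition of human LC-2-ad cells, read out with a cell viability assay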
Description: SANGER: Inhibition of human LC-2-ad cell growth in a cell viability assay.

SNU-387 = format: functional, cell-based, Homo sapiens; settings: Homo sapiens, SNU-387
Description: SANGER: Inhibition of human SNU-387 cell growth in a cell viability assay.

KNS-81-FD = format: functional, cell-based, Homo sapiens; settings: Homo sapiens, KNS-81-FD;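 note: growth inhibition of KNS-81-FD cells, read out with a cell viability assay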
Description: SANGER: Inhibition of human KNS-81-FD cell growth in a cell viability assay.

HuTu80 = format: functional, cell-based, Homo sapiens, HUTU-80; settings: Homo sapiens, HuTu80;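 note: growth inhibition of HuTu80 human cells, determined with a cell viability readout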
Description: SANGER: Inhibition of human HUTU-80 cell growth in a cell viability assay.

NCI-H520 = format: functional, cell-based, Homo sapiens; settings: Homo sapiens, NCI-H520;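 note: growth inhibition of NCI-H520 cells, measured by a cell viability assay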
Description: SANGER: Inhibition of human NCI-H520 cell growth in a cell viability assay.

RKO = format: functional, cell-based, Homo sapiens; settings: Homo sapiens, RKO;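 note: growth inhibition of human RKO cells, read out with a cell viability assay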
Description: SANGER: Inhibition of human RKO cell growth in a cell viability assay.

786-0 = format: functional, cell-based, Homo sapiens; settings: Homo sapiens
Description: SANGER: Inhibition of human 786-0 cell growth in a cell viability assay.

HCC1954 = format: functional, cell-based, Homo sapiens; settings: Homo sapiens, HCC1954;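 note: growth inhibition of human HCC1954 cells, read out with a cell viability assay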
Description: SANGER: Inhibition of human HCC1954 cell growth in a cell viability assay.

HCE-T = format: functional, cell-based, Homo sapiens; settings: Homo sapiens, HCE-T;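 note: cell viability assay read-out, reporting inhibition of HCE-T cell growth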
Description: SANGER: Inhibition of human HCE-T cell growth in a cell viability assay.

ES5 = format: functional, cell-based, Homo sapiens; settings: Homo sapiens, ES5;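 note: growth inhibition of human ES5 cells, read out by a cell viability assay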
Description: SANGER: Inhibition of human ES5 cell growth in a cell viability assay.

COc1cc([C@@H]2c3cc4c(cc3[C@@H](O[C@@H]3O[C@@H]5CO[C@@H](C)O[C@H]5[C@H](O)[C@H]3O)[C@H]3COC(=O)[C@H]23)OCO4)cc(OC)c1O [ETOPOSIDE]
IC50 (AN3-CA): 2200 nM | IC50 (LoVo): 2060 nM | IC50 (SJSA-1): 2980 nM | IC50 (BB49-HNC): > 16000 nM | IC50 (MN-60): > 16000 nM | IC50 (SW-620): 384 nM | IC50 (SCH): > 16000 nM | IC50 (GB-1): 1610 nM | IC50 (NB10): 16000 nM | IC50 (A2780): 1110 nM | IC50 (SCC-25): 6630 nM | IC50 (OVCAR-3): > 16000 nM | IC50 (MS-1): 5640 nM | IC50 (OCI-AML2): 559 nM | IC50 (NCI-H1650): 1740 nM | IC50 (HMV-2 cell line): 569 nM | IC50 (RT-112): 621 nM | IC50 (Capan-2): > 16000 nM | IC50 (CHL-1): 883 nM | IC50 (TE-10): 2380 nM | IC50 (TYK-nu): 2410 nM | IC50 (HuP-T4): 1450 nM | IC50 (MEG-01): 4750 nM | IC50 (KYSE-520 cell line): > 16000 nM | IC50 (LOX IMVI): > 16000 nM | IC50 (SK-LU-1): 1290 nM | IC50 (KYSE-510): 566 nM | IC50 (SNU-5): 7920 nM | IC50 (JVM-3): > 16000 nM | IC50 (SF-126): 1440 nM | IC50 (YAPC): > 16000 nM | IC50 (NCI-H810): 1580 nM | IC50 (KYSE-70 cell line): > 16000 nM | IC50 (TGW): > 16000 nM | IC50 (NCI-H1355): 390 nM | IC50 (ES7): 767 nM | IC50 (TGBC24TKB): > 16000 nM | IC50 (FTC-133): 3590 nM | IC50 (SK-MEL-24): > 16000 nM | IC50 (8505C): 693 nM | IC50 (L-363): 6590 nM | IC50 (LC-2-ad): 2060 nM | IC50 (SNU-387): > 16000 nM | IC50 (KNS-81-FD): > 16000 nM | IC50 (HuTu80): 217 nM | IC50 (NCI-H520): 8040 nM | IC50 (RKO): 471 nM | IC50 (786-0): 492 nM | IC50 (HCC1954): 10000 nM | IC50 (HCE-T): > 16000 nM | IC50 (ES5): > 16000 nM

Cc1cnc(-c2cnc(NCCNc3ccc(C#N)cn3)nc2-c2ccc(Cl)cc2Cl)[nH]1 [LADUVIGLUSIB]
IC50 (AN3-CA): > 2560 nM | IC50 (LoVo): > 2560 nM | IC50 (SJSA-1): > 2560 nM | IC50 (BB49-HNC): > 2560 nM | IC50 (MN-60): > 2560 nM | IC50 (SW-620): > 2560 nM | IC50 (SCH): > 2560 nM | IC50 (GB-1): > 2560 nM | IC50 (NB10): > 2560 nM | IC50 (A2780): > 2560 nM | IC50 (SCC-25): > 2560 nM | IC50 (OVCAR-3): > 2560 nM | IC50 (MS-1): > 2560 nM | IC50 (OCI-AML2): > 2560 nM | IC50 (NCI-H1650): > 2560 nM | IC50 (HMV-2 cell line): > 2560 nM | IC50 (RT-112): > 2560 nM | IC50 (Capan-2): > 2560 nM | IC50 (CHL-1): > 2560 nM | IC50 (TE-10): > 2560 nM | IC50 (TYK-nu): 1080 nM | IC50 (HuP-T4): > 2560 nM | IC50 (MEG-01): > 2560 nM | IC50 (KYSE-520 cell line): > 2560 nM | IC50 (LOX IMVI): 588 nM | IC50 (SK-LU-1): > 2560 nM | IC50 (KYSE-510): > 2560 nM | IC50 (SNU-5): > 2560 nM | IC50 (JVM-3): > 2560 nM | IC50 (SF-126): > 2560 nM | IC50 (YAPC): > 2560 nM | IC50 (NCI-H810): > 2560 nM | IC50 (KYSE-70 cell line): > 2560 nM | IC50 (TGW): > 2560 nM | IC50 (NCI-H1355): > 2560 nM | IC50 (ES7): > 2560 nM | IC50 (TGBC24TKB): > 2560 nM | IC50 (FTC-133): > 2560 nM | IC50 (SK-MEL-24): > 2560 nM | IC50 (8505C): > 2560 nM | IC50 (L-363): > 2560 nM | IC50 (LC-2-ad): > 2560 nM | IC50 (SNU-387): > 2560 nM | IC50 (KNS-81-FD): > 2560 nM | IC50 (HuTu80): > 2560 nM | IC50 (NCI-H520): > 2560 nM | IC50 (RKO): > 2560 nM | IC50 (786-0): > 2560 nM | IC50 (HCC1954): > 2560 nM | IC50 (HCE-T): > 2560 nM | IC50 (ES5): > 2560 nM
